“And” between values parts separate entries of the source, which are not always exact repeats. Identical values can stand only once.

For one data set, the system named is C57B1/Ks db/db mouse. Nature of the data set: Plasma insulin concentration. It is filed as in vivo. The note with it: db/db mice. The method, then: Inflammation is also a feature of type II diabetic animals and man. […] However, as a result of the C57B1/Ks genetic background rather than the C57B1/6, the mice show loss of pancreatic function from around 6/7 weeks of age and by 10 weeks show frank diabetes.
The mice were given chow diet (Bantin and Kingman, no 1 diet) and water ad lib. The mice were kept under controlled lighting conditions (lights on 08.00 h, 12 h light/12 h dark) and at a room temperature of 21°±1° C.
• Daily: Food and water intake • Twice weekly: Body weight and glucose • Day 1: Weigh mice, dose compounds, provide measured amount of food, provide measured amount of water • Days 2, 5 and 8: Fed blood glucose concentration • Day 9: Oral glucose tolerance • Days 12 and 16: Fed blood glucose concentration • Day 19: 24 hr glycaemic assay • Days 22, 26 and 29: Fed blood glucose concentration • Day 33: 24 hr glycaemic assay • Day 38: Fed blood glucose concentration • Day 39: Body composition by Dexascan in anaesthetised mice • Day 41: Termination. Take blood samples for glucose, free fatty acids, triglycerides, cholesterol, insulin and HbA

The next data set has as its system 3T3L1 cells. Nature of the data set: Induction of adipocyte differentiation (Oil red O). The note with it: treated for 8 days. It is filed as cell-based. The protocol:
In vitro vascular studies were carried out in rat isolated aortae by wire myography. PPARγ activation was investigated using reporter gene assays, a PPARγ competition-binding assay and an adipogenesis assay.
Cells were fixed and stained with Oil red O to identify fat droplets, to the presence of which indicates differentiation of fibroblasts into adipocytes. […] […].

The subject of data set [1] is dietary induced obese (DIO) mouse model. Nature of the data set: Growth (body weight, nose-anus length). It is filed as in vivo. Conditions: DIO mice; chronic dosing.
Description: (§1) The following are a battery of tests used to elicit the effects of drugs on diseases including type I or II diabetes, obesity, dyslipidaemia, related metabolic disorders and cardiovascular disease. • a) Body weight: Bodyweights of all mice were measured twice weekly during the study. • b) Food intake: Food intake was measured by weight difference taking account of food wastage in the bottom of the cage. • c) Measurement of water consumption: Water intake was calculated daily for each animal, during the treatment period, by weight difference of the water bottle. • d) Oral Glucose Tolerance Test (OGTT): Glucose was dissolved in water (3 g/10 ml) and given to the mice orally at a rate of 3 g/kg. […] Samples were then analysed automatically using a SpectraMax-250 and SoftMax Pro software. • f) Plasma preparation: Blood was collected for the measurement of i) plasma insulin, ii) cholesterol, iii) free fatty acids or iv) triglyceride concentration. • i. Plasma insulin analysis: Plasma insulin was measured using 5 μl of plasma, compared with a mouse insulin standard using a 96-well micro-assay plate • ii. […] The samples were mixed and incubated for 5 minutes before reading at dual wavelengths of 500 and 660 nm. • iii. Plasma free fatty acids: 5 μl samples of plasma were measured into a 96-well assay plate, to which was added 0.2 ml of reagents NEFA C • iv. […]
For the next data set, the system named is C57B1/6 ob/ob mouse. Nature of the data set: Liver triglyceride. It is filed as in vivo. The note with it: ob/ob mice, at termination, individual values. The method, then:
Blood samples were also taken at −30 minutes for insulin analysis. • e) Blood Glucose analysis: Duplicate 20 μl samples of blood of were taken for each individual sample and placed in a 96-well assay plate. To each well was added 180 μl aliquots of glucose oxidase reagent. Samples were mixed and then left for approximately 30 minutes. Samples were then analysed automatically using a SpectraMax-250 and SoftMax Pro software. • f) Plasma preparation: Blood was collected for the measurement of i) plasma insulin, ii) cholesterol, iii) free fatty acids or iv) triglyceride concentration. • i. Plasma insulin analysis: Plasma insulin was measured using 5 μl of plasma, compared with a mouse insulin standard using a 96-well micro-assay plate • ii. Plasma cholesterol analysis: To each sample was added 200 μl of infinity cholesterol liquid stable reagent. The samples were mixed and incubated for 5 minutes before reading at dual wavelengths of 500 and 660 nm. • iii. Plasma free fatty acids: 5 μl samples of plasma were measured into a 96-well assay plate, to which was added 0.2 ml of reagents NEFA C • iv. […] Dedicated software was using to quantify amounts of bone and fat. The mice were lightly anaesthetised, sufficient to keep them quiescent during this non-invasive technique. • h) Energy expenditure measurements: Energy expenditure was measured by open circuit indirect calorimetry with mice in their home cages. […] Plasma leptin was measured in fed mice using the Crystal Chem Elisa assay. • j) Plasma adiponectin: Adiponectin exerts some of its weight reduction effects via the brain. […] Plasma adiponectin was measured in overnight fasted mice using the 96-well B-Bridge Elisa assay. • k) Plasma HDL-cholesterol: Plasma HDL-cholesterol was measured in fed mice using the kit from Trinity Biotech. • l) 24 h blood glucose profile: This was determined in order to ensure that changes in the diurnal control of blood glucose were detected. Thus blood samples were obtained at three hourly intervals throughout a continuous 24 h period. • m) Plasma haemoglobin AIC: Samples (10 μl) were analysed using the AIC. […]

Data set [2] relates to dietary induced obese (DIO) mouse model. Nature of the data set: 24 h energy expenditure by indirect calorimetry, chronic dosing study. It is filed as in vivo. The note with it: DIO mice. From the text: The C57B1/6 mouse fed on a high fat diet for around 12 weeks is a standard model used to evaluate agents likely to affect metabolic disease including obesity, type II diabetes and dyslipidaemia. Thus both potential anti-obesity effects and effects on diabetic and dyslipidaemia parameters will be measured.
Once the acute studies were complete the mice were grouped in two groups of five mice for the chronic dosing study. Dosing was daily by oral gavage at 09:00-10:00.

The test system is the same in data set [3]. Nature of the data set: Percentage body fat by Dexascan. It is filed as in vivo. The note with it: DIO mice; day 28 Dexascan; pure THCV at 30-fold lower dose than rimonabant.
Description: as §1

Take `C=C(C)[C@@H]1CCC(C)=C[C@H]1c1c(O)cc(CCCCC)cc1O` [CBD, cannabidiol]: in the data set on C57B1/Ks db/db mouse, the “Plasma insulin during the 24 h glucose profiles” value is listed as “no consistent effect was seen”. The “Differentiation of fibroblasts into adipocytes (Oil Red O staining of fat droplets)” value with 3T3L1 cells is on record as “signs of fat droplet accumulation were apparent at all concentrations tested”.
For the compound `CCCc1cc(O)c2c(c1)OC(C)(C)[C@@H]1CCC(C)=C[C@@H]21` [THCV, tetrahydrocannabivarin], the Effect on growth entry in data set [1] is on record as “without any effect on growth”. For the same compound, the Liver triglycerides concentration was 17.16 and 11.16 and 14.94 and 15.48 and 9.10 and 16.72 and 9.33 and 14.97 in the data set on C57B1/6 ob/ob mouse (0.3 mg·kg−1 daily oral gavage (combination: both 0.3)); “increased” in the data set with C57B1/6 ob/ob mouse (0.3 mg·kg−1 daily oral gavage (combination: both 0.3), listed as pure THCV); 8.70 and 15.20 and 10.77 and 9.78 and 12.06 and 13.92 and 18.27 and 14.09 in the data set on C57B1/6 ob/ob mouse (3.0 mg·kg−1 daily oral gavage (combination: both 3.0)). Also, the “Potency on energy expenditure relative to rimonabant, on a dosage basis” value in data set [2] is on record as “at least 10 fold”. Besides, in data set [2] (high dose THCV-BDS, pure THCV 0.3 mg kg−1), the “Effectiveness on energy expenditure compared with rimonabant” value is on record as “more effective than rimonabant”. For the same compound, the Percentage body fat result in data set [3] was “at least as effective as rimonabant”.
